Patent US7968579B2, “Antifungal triazole derivatives” (Daewoong Pharmaceutical Co., Ltd., priority 2005, dated 2011)
In brackets after ≈: the same amount, converted by molar mass.

Assays:
Cryptococcus neoformans = assay: In vitro assay for antifungal activity; assay type: cell-based; conditions: RPMI 1640, 1% DMSO, concentration at which 50% of the fungi were inhibited vs negative control, alamarblue; for MIC: Cryptococcus neoformans
Description: (§1) Fungal strains to be tested were inoculated onto Sabouraud dextrose agar, YM agar, and Potato dextrose agar and sufficiently cultured at 35° C. for two to three days. Individual single colonies of the yeast fungi selected out of the cultured strains were sufficiently suspended in 5 ml of 0.85% sterile physiological saline, followed by correction to adjust the absorbance thereof at 530 nm to 0.108. The suspensions were diluted serially by 1:50 and then 1:20 in RPMI 1640 media to prepare liquid inocula ranging in cell count from 1.0×10^3 to 5.0×10^3 CFU/ml.
(§2) Antifungal samples were prepared by diluting the compounds of the present inventions in RPMI 1640 media to serial concentrations ranging from 0.0625 to 32 μg/ml. As a vehicle, DMSO was contained in a final concentration of 1% (V/V) in the antifungal samples. 0.1 ml of each of the dilutions in series was added to equal volume of each of the fungal inocula.
(§3) Concentrations of the compounds at which 50% of the fungi were inhibited compared to the negative control were determined using the growth indicator alamarblue.

Aspergillus fumigatus = assay: In vitro assay for antifungal activity; assay type: cell-based; conditions: RPMI 1640, 1% DMSO, concentration at which 50% of the fungi were inhibited vs negative control, alamarblue; for MIC: Aspergillus fumigatus
Description: as §1, §2, §3

Candida tropicalis = assay: In vitro assay for antifungal activity; assay type: cell-based; conditions: RPMI 1640, 1% DMSO, concentration at which 50% of the fungi were inhibited vs negative control, alamarblue, 24 hours; for MIC: Candida tropicalis
Description: as §1, §2, §3

Candida krusei = assay: In vitro assay for antifungal activity; assay type: cell-based; conditions: RPMI 1640, 1% DMSO, concentration at which 50% of the fungi were inhibited vs negative control, alamarblue, 24 hours; for MIC: Pichia kudriavzevii
Description: as §1, §2, §3

Candida albicans [1] = assay: In vitro assay for antifungal activity; assay type: cell-based; conditions: RPMI 1640, 1% DMSO, concentration at which 50% of the fungi were inhibited vs negative control, alamarblue, 24 hours; for MIC: Candida albicans
Description: as §1, §2, §3

Aspergillus terreus = assay: In vitro assay for antifungal activity; assay type: cell-based; conditions: RPMI 1640, 1% DMSO, concentration at which 50% of the fungi were inhibited vs negative control, alamarblue; for MIC: Aspergillus terreus
Description: as §1, §2, §3

Candida parapsilosis = assay: In vitro assay for antifungal activity; assay type: cell-based; conditions: RPMI 1640, 1% DMSO, concentration at which 50% of the fungi were inhibited vs negative control, alamarblue, 24 hours; for MIC: Lodderomyces parapsilosis
Description: as §1, §2, §3

Aspergillus flavus = assay: In vitro assay for antifungal activity; assay type: cell-based; conditions: RPMI 1640, 1% DMSO, concentration at which 50% of the fungi were inhibited vs negative control, alamarblue; for MIC: Aspergillus flavus
Description: as §1, §2, §3

Candida glabrata = assay: In vitro assay for antifungal activity; assay type: cell-based; conditions: RPMI 1640, 1% DMSO, concentration at which 50% of the fungi were inhibited vs negative control, alamarblue, 24 hours; for MIC: Nakaseomyces glabratus
Description: as §1, §2, §3

[2] = Assay for acute toxicity in mice; assay type: in vivo; conditions: oral administration, suspension in aqueous 0.5% methylcellulose, up to a dose of 2000 mg/kg, two weeks
Candida albicans [3] = assay: In vivo assay for antifungal activity (systemic candidiasis); conditions: male mice infected i.v. with Candida albicans; 20 mg/kg orally once a day for seven days; at 28 days after the infection
Description: Azole compounds synthesized in Examples were assayed for antifungal activity in vivo.
A suspension containing Candida albicans in a concentration ranging from 7×10^7 to 8×10^7 cfu/ml was intravenously injected at a dose of 0.1 ml/head into 10 male mice. 2 hrs after the injection, the compounds of the present inventions were orally administered at a dose of 20 mg/kg to respective mice in groups of 10. The compounds were administered once a day for seven days. The periods of time for which the infected mice lived were counted. The number of mice that survived the fungal infection was represented as % survival for each test group.

Structure (SMILES)	MIC (Cryptococcus neoformans) [µg/mL]	MIC (Aspergillus fumigatus) [µg/mL]	MIC (Candida tropicalis) [µg/mL]	MIC (Candida krusei) [µg/mL]	MIC (Candida albicans [1]) [µg/mL]	MIC (Aspergillus terreus) [µg/mL]	MIC (Candida parapsilosis) [µg/mL]	MIC (Aspergillus flavus) [µg/mL]	MIC (Candida glabrata) [µg/mL]	toxic syndromes (acute toxicity) [2]	Antifungal Activity (MIC) Cryptococcus neoformans (Cryptococcus neoformans) [µg/mL]	Antifungal Activity (MIC) Aspergillus fumigatus (Aspergillus fumigatus) [µg/mL]	Antifungal Activity (MIC) Candida tropicalis (Candida tropicalis) [µg/mL]	Antifungal Activity (MIC) Candida krusei (Candida krusei) [µg/mL]	Antifungal Activity (MIC) Candida albicans (Candida albicans [1])	Antifungal Activity (MIC) Aspergillus terreus (Aspergillus terreus) [µg/mL]	Antifungal Activity (MIC) Candida parapsilosis (Candida parapsilosis)	Antifungal Activity (MIC) Aspergillus flavus (Aspergillus flavus) [µg/mL]	Antifungal Activity (MIC) Candida glabrata (Candida glabrata) [µg/mL]	% survival (Candida albicans [3]) [%]
C[C@@H](n1cc(-c2cccc(Cl)c2)cn1)[C@](O)(Cn1cncn1)c1ccc(F)cc1F [Example 9, (2R,3R)-3-(4-(3-chlorophenyl)-1H-pyrazole-1-yl)-2-(2,4-difluorophenyl)-1-(1H-1,2,4-triazole-1-yl)butane-2-ol]	0.25 (≈ 0.582 µM)	2 (≈ 4.65 µM)	0.063 (≈ 0.147 µM)	0.25 (≈ 0.582 µM)	≤ 0.015	4 (≈ 9.31 µM)	≤ 0.015	8 (≈ 18.6 µM)	1 (≈ 2.33 µM)											
C[C@@H](n1cc(-c2ccc([N+](=O)[O-])cc2)cn1)[C@](O)(Cn1cncn1)c1ccc(F)cc1F [Example 17, (2R,3R)-2-(2,4-difluorophenyl)-3-(4-(4-nitrophenyl)-1H-pyrazole-1-yl)-1-(1H-1,2,4-triazole-1-yl)butane-2-ol]	0.031 (≈ 0.0704 µM)	2 (≈ 4.54 µM)	0.125 (≈ 0.284 µM)	0.25 (≈ 0.568 µM)	≤ 0.015	2 (≈ 4.54 µM)	≤ 0.015	8 (≈ 18.2 µM)	4 (≈ 9.08 µM)	not to suffer from any toxic syndromes										
C[C@@H](n1cc(-c2ccccc2)cn1)[C@](O)(Cn1cncn1)c1ccc(F)cc1F [Example 2]											0.25	1	0.25	0.5	≦0.015 μg/ml	4	≦0.015 μg/ml	4	2	
C[C@@H](n1cc(-c2cccc(F)c2)cn1)[C@](O)(Cn1cncn1)c1ccc(F)cc1F [Example 8, (2R,3R)-3-(4-(3-fluorophenyl)-1H-pyrazole-1-yl)-2-(2,4-difluorophenyl)-1-(1H-1,2,4-triazole-1-yl)butane-2-ol]	0.031 (≈ 0.075 µM)	1 (≈ 2.42 µM)	0.25 (≈ 0.605 µM)	0.5 (≈ 1.21 µM)	≤ 0.015	2 (≈ 4.84 µM)	≤ 0.015	8 (≈ 19.4 µM)	2 (≈ 4.84 µM)											
OC(Cn1cncn1)(Cn1cncn1)c1ccc(F)cc1F [Fluconazole, reference compound]	8 (≈ 26.1 µM)	> 128	> 8	> 32	4 (≈ 13.1 µM)	> 128	> 8	> 128	> 32											10
C[C@@H](n1cc(-c2ccccc2F)cn1)[C@](O)(Cn1cncn1)c1ccc(F)cc1F [Example 3, (2R,3R)-3-(4-(2-fluorophenyl)1H-pyrazole-1-yl)-2-(2,4-difluorophenyl)-1-(1H-1,2,4-triazole-1-yl)butane-2-ol]	0.125 (≈ 0.302 µM)	0.5 (≈ 1.21 µM)	1 (≈ 2.42 µM)	1 (≈ 2.42 µM)	≤ 0.015	2 (≈ 4.84 µM)	0.031 (≈ 0.075 µM)	4 (≈ 9.68 µM)	2 (≈ 4.84 µM)											
C[C@@H](n1cc(-c2ccc(Br)cc2)cn1)[C@](O)(Cn1cncn1)c1ccc(F)cc1F [Example 15, (2R,3R)-3-(4-(4-bromophenyl)-1H-pyrazole-1-yl)-2-(2,4-difluorophenyl)-1-(1H-1,2,4-triazole-1-yl)butane-2-ol]	0.125 (≈ 0.264 µM)	1 (≈ 2.11 µM)	0.125 (≈ 0.264 µM)	0.5 (≈ 1.05 µM)	≤ 0.015	1 (≈ 2.11 µM)	≤ 0.015	4 (≈ 8.43 µM)	2 (≈ 4.22 µM)											
C[C@@H](n1cc(-c2ccc(Cl)cc2)cn1)[C@](O)(Cn1cncn1)c1ccc(F)cc1F [Example 14, (2R,3R)-3-(4-(4-chlorophenyl)-1H-pyrazole-1-yl)-2-(2,4-difluorophenyl)-1-(1H-1,2,4-triazole-1-yl)butane-2-ol]	0.25 (≈ 0.582 µM)	1 (≈ 2.33 µM)	0.031 (≈ 0.0721 µM)	0.25 (≈ 0.582 µM)	≤ 0.015	2 (≈ 4.65 µM)	≤ 0.015	4 (≈ 9.31 µM)	2 (≈ 4.65 µM)	not to suffer from any toxic syndromes										
